Results taken from publication PMC8072890, “Aminoalkylamides of Eremomycin Exhibit an Improved Antibacterial Activity” (Pharmaceuticals, 2021).
In brackets after ≈: the same amount, converted by molar mass.

What was measured:
E. faecalis 559 = format: cell-based; details: sensitive strain; broth dilution micromethod, CLSI; modal values (or range) of 3–5 independent tests
From the text: (§1) The antimicrobial activity of semisynthetic derivatives of eremomycin 4a–q was studied in comparison with vancomycin on a wide panel of Gram-positive bacteria sensitive (Staphylococcus aureus ATCC 29213, S. aureus R-2, S. haemoliticus 602, S. pneumoniae ATCC 6305, Enteroccus faecium 4, and E. faecalis 559) and resistant to vancomycin (S. aureus 3797, S.aureus 3798, E. faecium 2, E. faecium 3576, E. faecalis 9, E. faecalis 583, and E. gallinarum BΠ 4147), information about the strains given in Table S3. The minimum microbial inhibitory concentration (MIC) for the test compounds was determined by the broth dilution micromethod according to CLSI guidelines, and vancomycin and a standard strain S. aureus ATCC 29213 used as controls (Figure 2 and Tables S4 and S5).
(§2) Table S4. Antibacterial activity of vancomycin and derivatives 4a–q against sensitive Gram-positive bacteria.
(§3) Strain/MIC (Minimum inhibitory concentration, μg/ml)*
(§4) Compound m n R S.aureus АТСС S.aureus R-2 S.haemoliticus S.pneumoniae АТСС E. faecium 4 E. faecalis 559
(§5) *MICs are presented as modal values for 3–5 independently replicated MIC tests for each strain and for the antibiotics. In the range of the
(§6) obtained MIC values, the obtained modal values are highlighted in bold.

E. faecium 4 = format: cell-based; details: sensitive strain; broth dilution micromethod, CLSI; modal values (or range) of 3–5 independent tests
From the text: as §1, §2, §3, §4, §5, §6

S. aureus R-2 = format: cell-based; details: sensitive strain; broth dilution micromethod, CLSI; modal values (or range) of 3–5 independent tests
From the text: as §1, §2, §3, §4, §5, §6

S. haemoliticus 602 = format: cell-based; details: sensitive strain; broth dilution micromethod, CLSI; modal values (or range) of 3–5 independent tests
From the text: as §1, §2, §3, §4, §5, §6

[1] = test system: Staphylococcus aureus ATCC 29213; format: cell-based; details: vancomycin-sensitive control strain; broth dilution micromethod, CLSI; modal values (or range) of 3–5 independent tests
From the text: as §1, §2, §3, §4, §5, §6

E. faecalis 583 = format: cell-based; details: strain resistant to vancomycin; broth dilution micromethod, CLSI; modal values (or range) of 3–5 independent tests
From the text: as §1
(§7) Table S5. Antibacterial activity of vancomycin and derivatives 4a–q against resistant Gram-positive bacteria.
(§8) Strain/MIC (minimum inhibitory concentration; μg/ml)
(§9) Compound m n R S.aureus 3797 S.aureus 3798 E. faecium 2 E. faecium 3576 E. faecalis 9 E. faecalis 583 E. gallinarum
(§10) *MICs are presented as modal values for 3–5 independently replicate MIC tests for each strain and for the antibiotics. In the range of the obtained MIC
(§11) values, the obtained modal values are highlighted in bold.

E. faecalis 9 = format: cell-based; details: strain resistant to vancomycin; broth dilution micromethod, CLSI; modal values (or range) of 3–5 independent tests
From the text: as §1, §7, §8, §9, §10, §11

E. faecium 2 = format: cell-based; details: strain resistant to vancomycin; broth dilution micromethod, CLSI; modal values (or range) of 3–5 independent tests
From the text: as §1, §7, §8, §9, §10, §11

E. faecium 3576 = format: cell-based; details: strain resistant to vancomycin; broth dilution micromethod, CLSI; modal values (or range) of 3–5 independent tests
From the text: as §1, §7, §8, §9, §10, §11

E. gallinarum BΠ 4147 = format: cell-based; details: strain resistant to vancomycin; broth dilution micromethod, CLSI; modal values (or range) of 3–5 independent tests
From the text: as §1, §7, §8, §9, §10, §11

S. aureus 3797 = format: cell-based; details: strain resistant to vancomycin; broth dilution micromethod, CLSI; modal values (or range) of 3–5 independent tests
From the text: as §1, §7, §8, §9, §10, §11

S.aureus 3798 = format: cell-based; details: strain resistant to vancomycin; broth dilution micromethod, CLSI; modal values (or range) of 3–5 independent tests
From the text: as §1, §7, §8, §9, §10, §11

[2] = test system: S. aureus (strain 10, clinical isolate); assay: Mouse staphylococcal sepsis model, single IV administration; format: in vivo, mice (SHK colony); details: for Survival: single IV, 30 min after infection, n = 10
Experimental: A comparative study of the efficacy of eremomycin N-(2-((2-fluorobenzyl)amino)ethyl)amide (4e) and vancomycin was carried out in a mice staphylococcal sepsis model. Healthy female mice of the SHK colony weighing 20–22 g after two-week quarantine were randomized into groups (n = 10) and received S. aureus as the infectious agent (strain 10, clinical isolate, adapted for growth in vivo by five-fold passaging in mice). In the experiment, female mice of the SHK colony weighing 20–22 g were used. S. aureus (strain 10, clinical isolate), adapted for growth in vivo by five-fold passaging in mice, was used as the infectious agent. Initially, the lethal dose (LD100) of staphylococcus was determined for this mouse line using the intravenous infection route. The mice deaths were counted daily for 10 days. Thus, the lethal dose (LD100) was defined as 8 × 10^8 CFU/mouse. Afterwards, the mice were seated in cages of 10 heads and were infected intravenously with S. aureus at a lethal dose, and the efficacy of the tested drugs was determined by the ED50 value (i.e., the dose at which 50% of the experimental animals survive). Then, 30 min after infection, the mice were injected intravenously with eremomycin N-(2-((2-fluorobenzyl)amino)ethyl)amide (4e) at single doses from 0.1 to 2.5 mg/kg. or vancomycin at doses from 2.5 to 7.5 mg/kg. As a control dose, a group of untreated animals infected with a lethal dose of S. aureus was present in the experiment. The determination of ED50 of the tested compounds was carried out in one experiment under a single control using the Behrens method.

[3] = Acute toxicity, single IV injection in mice; format: in vivo, F1 (CBAxC57Bl) mice; details: laboratory animals (mice), IV; LD50 acute toxicity / ED50 staphylococcal sepsis
Experimental: The F1 (CBAxC57Bl) mice (18–20 g) were randomized into groups (n = 6) and received eremomycin N-(2-((2-fluorobenzyl)amino)ethyl)amide 4e through single intravenous injections. The intact animals were used as the control. The substance was dissolved in a 5% glucose solution and was administrated in dosage ranges of 130–200 mg/kg into the tail veins of the mice. The concentration of 4e in the injected solution was 5 mg/mL.
The acute toxicity was estimated by the mortality and survival time, as well as by the body weight gain/loss, food consumption, and clinical symptoms of intoxication, including behavioral reactions. […] The LD50 values and the maximum tolerated doses (MTD = LD10) were calculated using the method of Litchfield and Wilcoxon using the StatPlus Professional 3.8.0 software.

[4] = mice, IV administration; previous investigation; cited from earlier work
Experimental: For the characterization of the therapeutic potential of the lead compound 4e, an acute toxicity test for an IV single-dose administration was also carried out (Table 2). […] The drug administration in doses of 130–190 mg/kg led to the death of some animals from 2 to 15 min after injections as a result of cardiac and respiratory arrest against the background of neurotoxicity. […] The quantitative parameters of acute toxicity (LD50 and MTD (LD10) values ...

CN[C@H](CC(C)C)C(=O)N[C@H]1C(=O)N[C@@H](CC(N)=O)C(=O)N[C@H]2C(=O)N[C@H]3C(=O)N[C@H](C(=O)N[C@H](C(=O)O)c4cc(O)cc(O)c4-c4cc3ccc4O)[C@H](O)c3ccc(c(Cl)c3)Oc3cc2cc(c3O[C@@H]2O[C@H](CO)[C@@H](O)[C@H](O)[C@H]2O[C@H]2C[C@](C)(N)[C@H](O)[C@H](C)O2)Oc2ccc(cc2Cl)[C@H]1O [Vancomycin, vancomycin, reference compound]
MIC E. faecalis 559 (E. faecalis 559): 2 µg/mL (≈ 1.38 µM)
MIC E. faecium 4 (E. faecium 4): 4 µg/mL (≈ 2.76 µM)
MIC S.aureus R-2 (S. aureus R-2): 1 µg/mL (≈ 0.69 µM)
MIC S.haemoliticus 602 (S. haemoliticus 602): 2 µg/mL (≈ 1.38 µM)
MIC S.aureus ATCC 29213 [1]: 0.25 to 0.5 µg/mL
MIC E. faecalis 583 (E. faecalis 583): 32 µg/mL (≈ 22.1 µM)
MIC E. faecalis 9 (E. faecalis 9): 8 µg/mL (≈ 5.52 µM)
MIC E. faecium 2 (E. faecium 2): 8 µg/mL (≈ 5.52 µM)
MIC E. faecium 3576 (E. faecium 3576): > 32 µg/mL
MIC E. gallinarum ВП 4147 (E. gallinarum BΠ 4147): 8 µg/mL (≈ 5.52 µM)
MIC S.aureus 3797 (S. aureus 3797): 8 µg/mL (≈ 5.52 µM)
MIC S.aureus 3798 (S.aureus 3798): 8 µg/mL (≈ 5.52 µM)
Survival ([2]; dose 2.5 mg/kg): 20%
Survival ([2]; dose 3.5 mg/kg): 40%
Survival ([2]; dose 4.5 mg/kg): 50%
Survival ([2]; dose 5.5 mg/kg): 80%
Survival ([2]; dose 6.5 mg/kg): 90%
Survival ([2]; dose 7.5 mg/kg): 100%
ED50 ([2]; mice infected IV with lethal dose of S. aureus (8 × 10^8 CFU/mouse), single IV dose 30 min after infection, n = 10 per group, observed 14 days, Behrens method): 4.1 mg/kg
therapeutic index (TI = LD50/ED50) [3]: 128
LD50 [4]: 525 mg/kg
